Columns and labels:
C57BL/6 mice = assay: In vivo delivery of luciferase mRNA lipid nanoparticles in mice (bioluminescence imaging); conditions: intravenous, single dose 0.5 mg/kg luciferase mRNA
Summary of the method: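 Female C57BL/6 mice, 6-8 weeks old, received luciferase mRNA lipid nanoparticles as a single intravenous dose of 0.5 mg/kg mRNA. At 6 h, D-luciferin given intraperitoneally; 10 min later, mice were imaged under isoflurane anaesthesia. Values are group mean fluorescence intensity and total photon count.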

[1] = Encapsulation efficiency of lipid nanoparticles (Quant-it RiboGreen RNA Assay); type: physicochemical; conditions: lipid nanoparticles with luciferase mRNA
Summary of the method: (§1)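 LNPs of ionizable lipid/cholesterol/phospholipid/PEG-lipid (50/38.5/10/1.5 mol%, N/P 6) were formed by microfluidic mixing with mRNA in pH 4.5 acetate, then buffer-exchanged by ultrafiltration. Size and PDI were measured by DLS. Encapsulation came from RiboGreen fluorescence (485/528 nm) in TE pH 7.5, with and without 0.5% Triton at 37 °C for 30 min.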

[2] = Particle size and PDI of lipid nanoparticles by dynamic light scattering; type: physicochemical; conditions: lipid nanoparticles with luciferase mRNA; ionizable lipid/cholesterol/DSPC/DMG-PEG2000 50/38.5/10/1.5 mol%
Summary of the method: as §1

Compound	Encapsulation efficiency (%) [1]	Particle size (nm) [2]	Particle-size distribution (PDI) [2]	Total photon count in vivo at 6 hours after administration (Total Flux) (C57BL/6 mice)
CCCCCCCCCOC(=O)OCCCCCCCN(CCO)CCCCCC(C)(C)COC(=O)CC(CCCCCCC)CCCCCCC [29b]	96.28%	112.43 nm	0.10	3.52E+10
CCCCCCCCCOC(=O)OCCCCCCCN(CCCCO)CCCCCC(C)(C)COC(=O)CC(CCCCCCC)CCCCCCC [32b]	95.31%	116.50 nm	0.16	3.52E+10
CCCCCCCCCCOC(=O)OCCCCCCN(CCO)CCCCCC(C)(C)COC(=O)CC(CCCCCCC)CCCCCCC [27b]	97.83%	91.10 nm	0.18	5.59E+10
CCCCCCCCCOC(=O)CCCCCCCN(CCO)CCCCCC(C)(C)CC(=O)OC(CCCCCCCC)CCCCCCCC [9a]	89.64%	103.03 nm	0.031	2.06E+10
CCCCCCCCCC(=O)OCC1(CCCCCN(CCCCO)CCCCCCCC(=O)OC(CCCCCCCCC)CCCCCCCCC)CC1 [24b]	94.52%	83.05 nm	0.019	7.06E+10
CCCCCCCCCC(=O)OCC1(CCCCCN(CCO)CCCCCCCC(=O)OC(CCCCCCCC)CCCCCCCC)CC1 [14b]	83.54%	99.73 nm	0.013	1.05E+11
CCCCCCCCCCOC(=O)CCCCCCCN(CCO)CCCCCC(C)(C)COC(=O)CC(CCCCCCC)CCCCCCC [19b]	83.01%	109.53 nm	0.036	6.13E+10
CCCCCCCCCC(=O)OCC(C)(C)CCCCCN(CCCCCCOC(=O)OCC(CCCCCCC)CCCCCCC)C(=O)SCCCN(C)C [47b]	97.27%	122.40 nm	0.07	2.84E+10
CCCCCCCC(CCCCCCC)CCOC(=O)OCCCCCCN(CCO)CCCCCC(C)(C)COC(=O)CCC(CCCCCC)CCCCCC [37b]	95.15%	83.72 nm	0.16	3.72E+10
CCCCCCCCCC(=O)OCC1(CCCCCN(CCCCO)CCCCCCOC(=O)OCC(CCCCCCCC)CCCCCCCC)CC1 [36b]	96.10%	112.50 nm	0.19	3.84E+10
CCCCCCCCCCC(=O)OCC1(CCCCCN(CCO)CCCCCCCC(=O)OC(CCCCCCCCC)CCCCCCCCC)CC1 [21b]	92.37%	94.58 nm	0.051	4.95E+10
CCCCCCCCCCCOC(=O)OCCCCN(CCO)CCCCCCC(C)(C)C(=O)OC(CCCCCCCC)CCCCCCCC [36a]	92.41%	104.80 nm	0.15	2.51E+10
CCCCCCCCCOC(=O)OCCCCCCN(CCO)CCCCCCC(C)(C)C(=O)OCC(CCCCCCC)CCCCCCC [33a]	86.98%	111.60 nm	0.17	1.09E+11
CCCCCCCCCCC(=O)OCC(C)(C)CCCCCN(CCCCO)CCCCCCCC(=O)OC(CCCCCCCCC)CCCCCCCCC [17b]	87.72%	109.87 nm	0.030	1.74E+11
CCCCCCCCCC(=O)OCC(C)(C)CCCCCN(CCCCCCCC(=O)OC(CCCCCCCC)CCCCCCCC)C(=O)SCCCCN(C)C [38b]	98.29%	102.50 nm	0.11	1.49E+10
CCCCCCCCCCCOC(=O)CCCCCN(CCCCO)CCCCCCC(C)(C)C(=O)OC(CCCCCCCC)CCCCCCCC [12a]	85.24%	104.85 nm	0.021	1.39E+10

Continued, in another order:

Encapsulation efficiency (%) [1]	Particle size (nm) [2]	Particle-size distribution (PDI) [2]	Compound	Total photon count in vivo at 6 hours after administration (Total Flux) (C57BL/6 mice)
80.27%	127.23 nm	0.12	CCCCCCCCCC(=O)OCCC(C)(C)CCCCN(CCCCO)CCCCCCCC(=O)OCC(CCCCCCC)CCCCCCC [59b]	1.04E+11
96.31%	88.33 nm	0.20	CCCCCCCCCC(=O)OCC(C)(C)CCCCCN(CCO)CCCCCCC(=O)OCCC(CCCCCCC)CCCCCCC [68b]	2.88E+11
94.16%	92.25 nm	0.22	CCCCCCCCCCC(=O)OCC(C)(C)CCCCCN(CCO)CCCCCCCCC(=O)OCC(CCCCCCC)CCCCCCC [87b]	1.35E+11
96.69%	81.37 nm	0.17	CCCCCCCCCCC(=O)OCCC(C)(C)CCCCN(CCO)CCCCCCCC(=O)OC(CCCCCCCCC)CCCCCCCCC [54b]	5.71E+10
91.95%	96.43 nm	0.12	CCCCCCCCCCCC(=O)OCC(C)(C)CCCCCN(CCCCO)CCCCCCC(=O)OCC(CCCCCCCCCC)CCCCCCCCCC [91b]	8.66E+10
69.74%	175.67 nm	0.17	CCCCCCCCCC(=O)OCCCC(C)(C)CCCN(CCCO)CCCCCCCCC(=O)OCC(CCCCCC)CCCCCC [112b]	1.31E+10
95.95%	95.59 nm	0.17	CCCCCCCCCC(=O)OCCCC(C)(C)CCCN(CCO)CCCCCCCC(=O)OCCC(CCCCCC)CCCCCC [71b]	1.70E+11
94.65%	90.37 nm	0.11	CCCCCCCCCCC(=O)OCCC(C)(C)CCCCN(CCCCO)CCCCCCCC(=O)OC(CCCCCCCCC)CCCCCCCCC [55b]	1.02E+11
91.21%	109.57 nm	0.08	CCCCCCCCCCCC(=O)OCC(C)(C)CCCCCN(CCCCO)CCCCCCCCC(=O)OCC(CCCCCCCC)CCCCCCCC [90b]	4.72E+10
72.51%	151.17 nm	0.09	CCCCCCCCCC(=O)OCC(C)(C)CCCCCN(CCCCO)CCCCCCCC(=O)OCC(CCCCCCC)CCCCCCC [117b]	1.73E+10
94.16%	86.61 nm	0.16	CCCCCCCCCC(=O)OCCC(C)(C)CCCCCN(CCO)CCCCCCC(=O)OCCC(CCCCCCCC)CCCCCCCC [108b]	1.38E+11
89.17%	123.77 nm	0.11	CCCCCCCCCC(=O)OCCCC(C)(C)CCCN(CCCCO)CCCCCCC(=O)OCC(CCCCCCCC)CCCCCCCC [84b]	6.68E+10
95.93%	95.88 nm	0.16	CCCCCCCCCCOC(=O)CCCCC(C)(C)CCN(CCO)CCCCCCCC(=O)OCC(CCCCCCCC)CCCCCCCC [65a]	6.53E+10
94.97%	91.27 nm	0.18	CCCCCCCCCC(=O)OCC(C)(C)CCCCCN(CCCO)CCCCCCC(=O)OCC(CCCCCCCC)CCCCCCCC [76b]	9.41E+10
84.88%	122.20 nm	0.08	CCCCCCCCCCC(=O)OCC(C)(C)CCCCCN(CCCCO)CCCCCCCCC(=O)OCC(CCCCCCC)CCCCCCC [89b]	5.51E+10
96.91%	96.20 nm	0.09	CCCCCCCCCC(=O)OCC(C)(C)CCCCCN(CCCCO)CCCCCCC(=O)OCCC(CCCCCCC)CCCCCCC [70b]	1.15E+11
92.87%	107.43 nm	0.19	CCCCCCCCCCC(=O)OCCCC(C)(C)CCCN(CCCO)CCCCCCCC(=O)OCCC(CCCCCCC)CCCCCCC [81b]	5.20E+10
